# Read-outs that look alike come from different tables or passages of the source.
# How the values were obtained:
# Experiment in all cases: selectivity profiling in a panel of 340 wild-type kinases (Reaction Biology Europe)
# Format in all cases: binding
# [1] = molecular target: T1, 340 wild-type kinases (Homo sapiens, UniProt Q13163)
# T1 construct: purchased Reaction Biology Europe
# T1 sequence (Q13163 1-448): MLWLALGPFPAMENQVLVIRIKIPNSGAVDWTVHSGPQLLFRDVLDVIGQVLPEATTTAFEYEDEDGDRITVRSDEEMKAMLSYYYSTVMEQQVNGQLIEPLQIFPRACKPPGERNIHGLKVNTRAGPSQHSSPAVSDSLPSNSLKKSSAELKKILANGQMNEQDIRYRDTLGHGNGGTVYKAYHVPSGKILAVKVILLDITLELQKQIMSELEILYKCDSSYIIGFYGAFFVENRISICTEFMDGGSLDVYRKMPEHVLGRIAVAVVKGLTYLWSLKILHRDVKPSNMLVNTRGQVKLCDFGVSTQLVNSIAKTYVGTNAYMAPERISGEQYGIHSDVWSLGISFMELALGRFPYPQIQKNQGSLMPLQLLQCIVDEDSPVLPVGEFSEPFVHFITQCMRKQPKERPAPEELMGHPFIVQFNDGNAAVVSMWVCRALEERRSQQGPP
# [2] = molecular target: T2, 340 wild-type kinases (Homo sapiens, UniProt Q96BR1)
# T2 construct: purchased Reaction Biology Europe
# T2 sequence (Q96BR1 1-496): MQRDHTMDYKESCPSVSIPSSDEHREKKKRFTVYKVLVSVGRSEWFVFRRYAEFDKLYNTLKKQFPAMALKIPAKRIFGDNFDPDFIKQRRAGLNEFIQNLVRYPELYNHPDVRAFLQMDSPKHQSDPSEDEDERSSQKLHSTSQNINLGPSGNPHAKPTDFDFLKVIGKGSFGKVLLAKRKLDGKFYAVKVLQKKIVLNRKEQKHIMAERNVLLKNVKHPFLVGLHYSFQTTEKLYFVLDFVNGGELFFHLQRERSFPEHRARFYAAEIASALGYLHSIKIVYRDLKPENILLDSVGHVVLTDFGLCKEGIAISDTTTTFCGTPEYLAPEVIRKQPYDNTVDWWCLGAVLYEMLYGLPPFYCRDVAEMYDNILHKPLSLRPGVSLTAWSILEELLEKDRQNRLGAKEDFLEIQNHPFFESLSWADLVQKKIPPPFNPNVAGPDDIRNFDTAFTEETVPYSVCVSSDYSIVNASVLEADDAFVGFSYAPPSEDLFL
# [3] = molecular target: T3, 340 wild-type kinases (Homo sapiens, UniProt P10721)
# T3 construct: purchased Reaction Biology Europe
# [4] = molecular target: T4, 340 wild-type kinases (Homo sapiens, UniProt P29323)
# T4 construct: purchased Reaction Biology Europe
# T4 sequence (P29323 19-1055): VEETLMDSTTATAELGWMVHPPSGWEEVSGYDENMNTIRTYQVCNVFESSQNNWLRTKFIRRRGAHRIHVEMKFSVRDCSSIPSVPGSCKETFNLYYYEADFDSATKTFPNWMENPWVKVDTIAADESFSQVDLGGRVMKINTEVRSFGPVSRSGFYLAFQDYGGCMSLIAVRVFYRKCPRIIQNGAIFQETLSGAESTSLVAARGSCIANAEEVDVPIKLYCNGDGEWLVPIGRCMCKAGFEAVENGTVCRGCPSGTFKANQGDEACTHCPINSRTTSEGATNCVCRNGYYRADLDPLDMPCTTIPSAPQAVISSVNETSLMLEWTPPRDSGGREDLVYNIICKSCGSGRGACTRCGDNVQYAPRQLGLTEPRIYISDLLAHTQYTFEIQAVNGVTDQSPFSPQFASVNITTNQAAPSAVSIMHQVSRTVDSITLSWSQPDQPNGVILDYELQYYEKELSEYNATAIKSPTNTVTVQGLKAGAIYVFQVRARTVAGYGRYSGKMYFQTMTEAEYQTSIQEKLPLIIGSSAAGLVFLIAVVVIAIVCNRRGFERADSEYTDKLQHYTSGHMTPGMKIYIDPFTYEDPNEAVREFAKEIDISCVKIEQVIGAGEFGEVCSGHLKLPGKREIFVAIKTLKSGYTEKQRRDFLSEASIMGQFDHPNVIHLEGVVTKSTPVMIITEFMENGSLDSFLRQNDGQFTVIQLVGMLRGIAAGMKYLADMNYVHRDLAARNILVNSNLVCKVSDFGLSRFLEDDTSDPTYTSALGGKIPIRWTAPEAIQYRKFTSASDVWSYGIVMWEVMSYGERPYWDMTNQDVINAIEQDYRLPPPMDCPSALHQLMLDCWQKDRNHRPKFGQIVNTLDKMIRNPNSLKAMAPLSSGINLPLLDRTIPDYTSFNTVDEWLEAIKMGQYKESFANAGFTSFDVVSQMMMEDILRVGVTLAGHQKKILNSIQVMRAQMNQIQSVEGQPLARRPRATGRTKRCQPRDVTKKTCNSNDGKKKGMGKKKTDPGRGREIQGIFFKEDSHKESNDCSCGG
# T3 sequence (P10721 26-976): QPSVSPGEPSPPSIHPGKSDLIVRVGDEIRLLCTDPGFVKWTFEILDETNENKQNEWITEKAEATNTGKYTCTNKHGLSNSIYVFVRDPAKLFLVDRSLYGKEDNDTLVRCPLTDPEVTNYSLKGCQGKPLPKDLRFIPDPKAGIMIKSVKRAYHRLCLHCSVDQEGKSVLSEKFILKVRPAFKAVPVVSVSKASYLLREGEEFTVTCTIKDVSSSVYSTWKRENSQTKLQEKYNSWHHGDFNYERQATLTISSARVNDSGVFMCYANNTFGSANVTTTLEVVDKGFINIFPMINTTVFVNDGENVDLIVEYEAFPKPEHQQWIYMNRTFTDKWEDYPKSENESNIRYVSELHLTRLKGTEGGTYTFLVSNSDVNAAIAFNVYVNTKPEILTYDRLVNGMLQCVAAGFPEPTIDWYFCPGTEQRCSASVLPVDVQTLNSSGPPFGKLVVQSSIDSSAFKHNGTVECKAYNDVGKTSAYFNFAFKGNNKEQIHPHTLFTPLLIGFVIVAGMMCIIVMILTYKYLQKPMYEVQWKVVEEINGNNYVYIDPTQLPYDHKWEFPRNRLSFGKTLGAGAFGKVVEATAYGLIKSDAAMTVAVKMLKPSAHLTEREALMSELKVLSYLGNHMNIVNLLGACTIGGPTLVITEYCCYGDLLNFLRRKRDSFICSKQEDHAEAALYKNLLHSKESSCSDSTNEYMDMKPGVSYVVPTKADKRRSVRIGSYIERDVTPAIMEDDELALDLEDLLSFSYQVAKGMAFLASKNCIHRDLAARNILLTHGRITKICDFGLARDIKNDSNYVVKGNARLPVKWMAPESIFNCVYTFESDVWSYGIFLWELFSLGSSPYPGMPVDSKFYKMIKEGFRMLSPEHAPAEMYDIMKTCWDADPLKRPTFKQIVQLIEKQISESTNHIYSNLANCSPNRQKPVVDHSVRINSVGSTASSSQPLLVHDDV
smiles,measurement,setting,value
CNC(=O)c1ccc2c(c1)C(=O)c1ccc(Nc3ccc(F)c(NC(=O)C4CC4)c3)cc1CC2 [Compound 2015],remaining activity at 0.2 µM,"[1]; 0.2 µM 2015, read-out: MEK5 residual activity",102%
same,remaining activity at 1 µM,"[1]; 1 µM 2015, read-out: MEK5 residual activity",88.1%
same,remaining activity at 0.2 µM,"[1]; MEK5, 0.2 µM, read-out: residual activity",102%
same,remaining activity at 1 µM,"[1]; MEK5, 1 µM, read-out: residual activity",88.1%
same,remaining activity at 0.2 µM,"[2]; 0.2 µM 2015, read-out: SGK3 residual activity",107%
same,remaining activity at 1 µM,"[2]; 1 µM 2015, read-out: SGK3 residual activity",92.1%
same,remaining activity at 0.2 µM,"[2]; SGK3, 0.2 µM, read-out: residual activity",107%
same,remaining activity at 1 µM,"[2]; SGK3, 1 µM, read-out: residual activity",92%
same,remaining activity at 0.2 µM,"[3]; 0.2 µM 2015, read-out: KIT residual activity",114%
same,remaining activity at 1 µM,"[3]; 1 µM 2015, read-out: KIT residual activity",109%
same,remaining activity at 0.2 µM,"[3]; KIT, 0.2 µM, read-out: residual activity",114%
same,remaining activity at 1 µM,"[3]; KIT, 1 µM, read-out: residual activity",109%
same,remaining activity at 0.2 µM,"[4]; 0.2 µM 2015, read-out: EPHB2 residual activity",97.4%
same,remaining activity at 1 µM,"[4]; 1 µM 2015, read-out: EPHB2 residual activity",98.5%
same,remaining activity at 0.2 µM,"[4]; EPHB2, 0.2 µM, read-out: residual activity",97.4%
same,remaining activity at 1 µM,"[4]; EPHB2, 1 µM, read-out: residual activity",98.5%
